# Assay results: patent publication US12570603B2, “FABP4/5 inhibitors, methods of use and methods of making” (Novius Therapeutics, LLC, priority 2021, dated 2026)
# What was measured:
# [1] = test system: PPARδ targets PDPK1 and CD47 in TNBC cells MB-231; test: Real-time PCR of PPARδ targets; assay type: cell-based; conditions: MB-231, 1 μM, 6 hours
# Description: (§1) Cells were treated with a compound for 6 h. then lysed and RNA was extracted using Trizol, according to the manufacturer's instructions. cDNA was generated using GeneAmp RNA PCR (Applied Biosystems). qPCR was carried out using TaqMan chemistry and Assays-on-Demand probes (Applied Biosystems). 18s (4352930) rRNA was used for normalization. Relative expression was calculated as 2^−ΔΔCT.
# [2] = test system: FABP5 together with PPARδ; test: Transcriptional activation assay in cells overexpressing FABP5, with PPARδ activator GW0742; assay type: cell-based; conditions: together with GW0742, FIG. 8
# Description: (§2) COS-7 were cultured in 6-well plates and co-transfected with either a luciferase reporter driven by 3 copies of a PPRE and expression vector for either PPARδ, PPARα or PPARγ together with a vector harboring cDNA for β-galactosidase, serving as a transfection control. To test whether FABP4 or FABP5 mediate activation of their cognate receptors PPARγ and PPARδ, respectively, cells were also co-transfected with a plasmid harboring sequence of either FABP4 or FABP5. 18 h post-transfection, cells were placed in a serum-free medium and treated with agonist/compound. 18 h. later, cells were lysed, luciferase activity was assayed (Promega, WI, USA) and corrected for transfection efficiency by the activity of β-galactosidase.
# MB-231 tumors = test: TNBC xenograft experiment; assay type: in vivo; conditions: NSG mice, B4 20 or 40 mg/kg IP 5 times a week, after 14 days
# Description: Eight-week-old NSG […] females were injected subcutaneously into the right flank with 5×10^6 MB-231 cells 1:1 with matrigel. Treatments started the day after cells injections 5 days a week. Mice were treated with either vehicle (5% DMSO, 15%-HPCBD (PH 9.0) in water), 20 mg/kg, or 40 mg/kg B4 dissolved in vehicle. Tumor size was assessed twice per week using a digital caliper. Tumor volumes were determined by measuring the length (l) and the width (w) of the tumor and calculating the volume (V=lw^2/2). Mice were scarified 14 days after injection. Statistical significance between the control and treated mice in both experiments was evaluated using a Student's t test. Mouse experiments were conducted after approval by the institutional animal care and use committee at Case Western Reserve University.
# TNBC xenograft model was used to test the efficacy of B4 in suppressing growth on tumors in vivo. 5×10^6 MB-231 cells were subcutaneously injected into the right flank of NSG mice. B4 (20, or 40 mg/kg) or a vehicle were IP injected 5 times a week and tumor growth was monitored.
# HepG2 cells = test: Lipid uptake assay, oleic acid, Nile Red (steatosis model); assay type: cell-based, human; conditions: OA 1 mM
# Description: 2) Hepg2 cells: 5000 cells were plated in 96-well plate. The next day cells were treated with tested compounds for 4 hours and then treated with 1 mM oleic acid for additional 24 hours. Cells were then stained with Nile Red and Dapi and lipid content was quantified using Cytation5 (Agilent).
# 2) Hepg2 cells: 5000 cells were plated in 96-well plate. The next day cells were treated with tested compounds for 4 hours and then treated with 1 mM oleic acid for additional 24 hours. Cells were then stained with Nile Red and Dapi and lipid content was quantified.
# TNBC lines and MCF7 = test: Proliferation assay in multiple TNBC lines and MCF7, MB-231 shF5 as control; assay type: cell-based
# Description: 2000 cells were plated in each well of 96-well plate. The next day cells were treated with compounds and incubated in Incucyte for 4 days. Images taken every 4 hours for the duration of the time were analyzed to calculate percentage of confluency in response to the treatments. Growth inhibition was calculated as 1−(percentage of viable cells out of untreated cells).
# 3T3-L1 adipocytes [3] = test: Lipid uptake during adipocyte maturation, Nile Red; assay type: cell-based, mouse; conditions: B4 from day 6, stained day 12
# Description: (§3) 3) 3T3-L1: Mouse 3T3-L1 cells were differentiated in culture according to ATCC protocol to become mature adipocytes. At day 6 of the differentiation, compound treatment started. Cells were stained by Nile Red on day and color intensity in each cell was measured relative to Dapi staining. Lipolysis was measured by measuring glycerol levels using lipolysis kit (Cayman, USA) according to the manufacturer manual.
# as §3, with “1)” for “3)”
# [4] = test system: PPARδ targets PDPK1 and CD47 in TNBC cells MB-157; test: Real-time PCR of PPARδ targets; assay type: cell-based, human; conditions: MB-157, 1 μM, 6 hours
# Description: as §1
# [5] = test system: RAW264.7 murine macrophage cells; test: LPS-stimulated proinflammatory cytokine expression by QPCR; assay type: cell-based; conditions: B4 0 to 5 μM, then LPS 100 ng/ml
# Description: as §1
# FIG. 33, FIG. 34, and FIG. 35 show the anti-inflammatory effects of compound B4 on RAW264.7 murine macrophage cells.
# 3T3-L1 adipocytes [6] = test: Lipolysis (glycerol release) in mature adipocytes; assay type: cell-based, mouse
# Description: as §3
# as §3, with “1)” for “3)”
# [7] = test system: FABP4 together with PPARγ; test: Transcriptional activation assay in cells overexpressing FABP4, with PPARγ activator rosiglitazone; assay type: cell-based; conditions: FIG. 7
# Description: as §2
compound,measurement,setting,value
"CC(C)Oc1cc(NC(=O)CSCC(=O)O)c(Cl)cc1Cl [Compound B4, 2-((2-((2,4-dichloro-5-isopropoxyphenyl)amino)-2-oxoethyl)thio)acetic acid]",levels of endogenous PPARδ targets PDPK1 and CD47,[1],significantly lower
same,inhibition of PPARδ activity in cells overexpressing FABP5,[2],inhibit activity of the nuclear receptors only in cells that express the binding proteins
same,growth of 231 tumors,MB-231 tumors,almost completely abolished growth
same,uptake of lipids into hepatocytes (Nile Red),HepG2 cells; B4 0.1 to 5 μM,prevented uptake of lipids into hepatocytes
same,size of the lipid droplets,HepG2 cells; B4 treated cells,significantly smaller droplets
same,growth inhibition of TNBC lines by FABP5 level,TNBC lines and MCF7,inhibited growth of only TNBC lines expressing high FABP5 levels
same,lipid droplets in adipocytes (Nile Red),3T3-L1 adipocytes [3],fewer LD within the cells
same,levels of endogenous PPARδ targets PDPK1 and CD47,[4],significantly lower
same,IL-1β mRNA level,[5],lower in the treated cells
same,IL-6 mRNA level,[5],lower in the treated cells
same,TNFα mRNA level,[5],lower in the treated cells
same,basal lipolysis (glycerol release),3T3-L1 adipocytes [6]; basal,inhibited basal lipolysis
same,isoproterenol-stimulated lipolysis (glycerol release),"3T3-L1 adipocytes [6]; isoproterenol-stimulated, relative to basal",more potent
same,inhibition of PPARγ activity in cells overexpressing FABP4,[7],inhibit activity of the nuclear receptors only in cells that express the binding proteins
